pIC50: −log10 of the molar value.

The source of these data is US20240101576A1, “HETEROCYCLIC INHIBITORS OF EGFR AND/OR HER2, FOR USE IN THE TREATMENT OF CANCER” (Scorpion Therapeutics, Inc., priority 2020, published 2024).

Format in all cases: cell-based
The target in assay [1] is T1, EGFR exon 20 SVD Ins D770_N771 (Ba/F3 cells) (Homo sapiens, UniProt P00533, INS770SVD).
T1 construct: expressed in transfected cells; host or cells: Ba/F3 (murine pro-B cells), retroviral transduction, puromycin selection, IL3-independent pool
Nature of the assay: Inhibitor activity on EGFR-dependent cell growth (CellTiter-Glo, 72 h), Ba/F3 EGFR exon 20 SVD Ins. Conditions: read-out: BaF3 SVD IC50. The essentials: (§1)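 IC50s derive from a sigmoidal dose–response fit of CellTiter-Glo signal. The signal was normalised between […]-treated cells and cell-free medium. Ba/F3 mutant-EGFR cells, seeded at 400–800/well depending on the line, had 72 h of exposure to a 10-point, 3-fold compound series.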

For another assay, the target named is T2, EGFR WT (Ba/F3 cells) (Homo sapiens, UniProt P00533).
T2 construct: expressed in transfected cells; host or cells: Ba/F3 (murine pro-B cells), retroviral transduction, puromycin selection, maintained with EGF
The experiment in a line: Inhibitor activity on EGFR-dependent cell growth (CellTiter-Glo, 72 h), Ba/F3 EGFR WT. Conditions: read-out: BaF3 WT IC50. The essentials: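 This growth assay used Ba/F3 cells that depend on wild-type EGFR and are kept in EGF without IL3. Compounds were made up as 10 mM DMSO stocks and diluted 3-fold over 10 points. 120 nL went onto 600 cells/well. After 72 hours, 40 μL CellTiter-Glo was added and luminescence read on EnVision after 30 min.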

The target of assay [2] is T3, EGFR exon 20 ASV Ins V769_D770 (Ba/F3 cells) (Homo sapiens, UniProt P00533, INS769ASV).
T3 construct: expressed in transfected cells; host or cells: Ba/F3 (murine pro-B cells), retroviral transduction, puromycin selection, IL3-independent pool
Nature of the assay: Inhibitor activity on EGFR-dependent cell growth (CellTiter-Glo, 72 h), Ba/F3 EGFR exon 20 ASV Ins. The note with it: read-out: BaF3 ASV IC50. The essentials: as §1

The target of assay [3] is T4, EGFR exon 20 FQEA Ins A763_V764 (Ba/F3 cells) (Homo sapiens, UniProt P00533, INS763FQEA).
T4 construct: expressed in transfected cells; host or cells: Ba/F3 (murine pro-B cells), retroviral transduction, puromycin selection, IL3-independent pool
Nature of the assay: Inhibitor activity on EGFR-dependent cell growth (CellTiter-Glo, 72 h), Ba/F3 EGFR exon 20 FQEA Ins. Conditions: read-out: BaF3 FQEA IC50. The essentials: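 Ba/F3 cells engineered with each EGFR variant were plated (400, 600 or 800 per well for L858R, L858R/C797S, and exon 19del/FQEA). They were exposed for 72 hours to compound serially diluted from a 10 mM DMSO stock. Remaining viable cells were quantified by CellTiter-Glo, and IC50 was curve-fitted.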
Background: ATP-based viability assays read luminescence as a measure of living cells.

T2 sequence (P00533 25-1210): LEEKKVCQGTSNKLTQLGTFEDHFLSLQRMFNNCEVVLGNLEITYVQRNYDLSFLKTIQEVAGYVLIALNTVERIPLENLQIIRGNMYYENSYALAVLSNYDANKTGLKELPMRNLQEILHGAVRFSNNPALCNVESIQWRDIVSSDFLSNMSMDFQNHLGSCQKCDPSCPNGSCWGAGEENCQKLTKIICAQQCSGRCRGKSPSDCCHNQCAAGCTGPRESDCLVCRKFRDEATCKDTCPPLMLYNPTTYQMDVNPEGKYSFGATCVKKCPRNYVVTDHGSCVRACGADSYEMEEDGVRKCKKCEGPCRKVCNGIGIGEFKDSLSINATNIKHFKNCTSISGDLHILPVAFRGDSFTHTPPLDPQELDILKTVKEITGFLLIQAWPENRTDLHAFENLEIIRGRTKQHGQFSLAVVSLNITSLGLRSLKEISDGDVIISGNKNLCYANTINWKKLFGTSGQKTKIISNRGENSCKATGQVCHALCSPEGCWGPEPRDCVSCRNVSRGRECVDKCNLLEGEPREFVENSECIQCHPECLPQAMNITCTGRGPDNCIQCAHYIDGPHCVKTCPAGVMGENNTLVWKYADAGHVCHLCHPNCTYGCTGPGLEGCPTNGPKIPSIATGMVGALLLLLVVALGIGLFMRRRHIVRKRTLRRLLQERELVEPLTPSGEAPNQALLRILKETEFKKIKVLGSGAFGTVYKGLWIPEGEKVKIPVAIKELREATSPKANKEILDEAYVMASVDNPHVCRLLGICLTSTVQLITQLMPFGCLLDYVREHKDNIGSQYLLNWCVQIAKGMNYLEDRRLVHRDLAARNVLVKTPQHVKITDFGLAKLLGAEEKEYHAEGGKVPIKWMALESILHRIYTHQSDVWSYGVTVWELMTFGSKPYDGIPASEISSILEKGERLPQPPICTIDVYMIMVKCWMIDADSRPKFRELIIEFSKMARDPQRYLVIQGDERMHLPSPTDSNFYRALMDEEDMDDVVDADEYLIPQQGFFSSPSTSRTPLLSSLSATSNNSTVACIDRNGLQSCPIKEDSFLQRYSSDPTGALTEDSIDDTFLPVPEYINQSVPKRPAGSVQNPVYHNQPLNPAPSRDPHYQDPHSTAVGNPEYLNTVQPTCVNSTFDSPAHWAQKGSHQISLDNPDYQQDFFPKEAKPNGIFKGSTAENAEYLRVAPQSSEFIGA
T4 sequence (P00533 with tags, fused parts or gaps INS763FQEA): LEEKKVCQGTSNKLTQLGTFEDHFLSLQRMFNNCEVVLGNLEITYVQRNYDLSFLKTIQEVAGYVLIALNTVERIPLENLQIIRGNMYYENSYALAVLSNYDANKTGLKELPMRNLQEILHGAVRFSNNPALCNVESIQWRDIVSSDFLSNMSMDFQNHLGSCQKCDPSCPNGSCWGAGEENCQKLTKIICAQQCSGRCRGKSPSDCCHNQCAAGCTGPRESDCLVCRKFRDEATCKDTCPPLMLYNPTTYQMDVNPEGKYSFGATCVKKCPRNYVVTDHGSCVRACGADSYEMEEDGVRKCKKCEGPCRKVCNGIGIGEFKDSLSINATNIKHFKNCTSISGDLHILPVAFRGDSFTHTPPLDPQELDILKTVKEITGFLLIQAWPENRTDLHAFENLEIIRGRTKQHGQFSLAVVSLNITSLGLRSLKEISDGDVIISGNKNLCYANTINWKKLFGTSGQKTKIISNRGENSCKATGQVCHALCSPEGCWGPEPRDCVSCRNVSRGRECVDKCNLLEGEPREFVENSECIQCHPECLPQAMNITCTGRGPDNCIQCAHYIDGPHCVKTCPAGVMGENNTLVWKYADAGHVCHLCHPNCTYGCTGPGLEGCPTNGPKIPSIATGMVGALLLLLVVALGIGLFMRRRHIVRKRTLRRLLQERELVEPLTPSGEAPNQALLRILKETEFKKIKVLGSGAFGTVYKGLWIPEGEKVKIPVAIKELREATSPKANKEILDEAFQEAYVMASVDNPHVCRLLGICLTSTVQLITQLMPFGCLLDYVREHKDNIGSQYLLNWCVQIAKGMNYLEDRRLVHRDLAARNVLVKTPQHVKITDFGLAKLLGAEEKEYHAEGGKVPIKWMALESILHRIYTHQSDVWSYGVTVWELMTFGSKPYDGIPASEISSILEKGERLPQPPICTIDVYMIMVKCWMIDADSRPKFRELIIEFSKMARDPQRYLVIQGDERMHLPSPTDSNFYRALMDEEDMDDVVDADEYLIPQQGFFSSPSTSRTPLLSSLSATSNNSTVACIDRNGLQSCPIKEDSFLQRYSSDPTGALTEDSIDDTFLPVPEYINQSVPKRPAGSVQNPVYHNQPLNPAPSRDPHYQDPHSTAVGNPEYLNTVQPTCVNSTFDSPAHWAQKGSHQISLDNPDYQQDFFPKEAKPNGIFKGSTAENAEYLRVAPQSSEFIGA
T3 sequence (P00533 with tags, fused parts or gaps INS769ASV): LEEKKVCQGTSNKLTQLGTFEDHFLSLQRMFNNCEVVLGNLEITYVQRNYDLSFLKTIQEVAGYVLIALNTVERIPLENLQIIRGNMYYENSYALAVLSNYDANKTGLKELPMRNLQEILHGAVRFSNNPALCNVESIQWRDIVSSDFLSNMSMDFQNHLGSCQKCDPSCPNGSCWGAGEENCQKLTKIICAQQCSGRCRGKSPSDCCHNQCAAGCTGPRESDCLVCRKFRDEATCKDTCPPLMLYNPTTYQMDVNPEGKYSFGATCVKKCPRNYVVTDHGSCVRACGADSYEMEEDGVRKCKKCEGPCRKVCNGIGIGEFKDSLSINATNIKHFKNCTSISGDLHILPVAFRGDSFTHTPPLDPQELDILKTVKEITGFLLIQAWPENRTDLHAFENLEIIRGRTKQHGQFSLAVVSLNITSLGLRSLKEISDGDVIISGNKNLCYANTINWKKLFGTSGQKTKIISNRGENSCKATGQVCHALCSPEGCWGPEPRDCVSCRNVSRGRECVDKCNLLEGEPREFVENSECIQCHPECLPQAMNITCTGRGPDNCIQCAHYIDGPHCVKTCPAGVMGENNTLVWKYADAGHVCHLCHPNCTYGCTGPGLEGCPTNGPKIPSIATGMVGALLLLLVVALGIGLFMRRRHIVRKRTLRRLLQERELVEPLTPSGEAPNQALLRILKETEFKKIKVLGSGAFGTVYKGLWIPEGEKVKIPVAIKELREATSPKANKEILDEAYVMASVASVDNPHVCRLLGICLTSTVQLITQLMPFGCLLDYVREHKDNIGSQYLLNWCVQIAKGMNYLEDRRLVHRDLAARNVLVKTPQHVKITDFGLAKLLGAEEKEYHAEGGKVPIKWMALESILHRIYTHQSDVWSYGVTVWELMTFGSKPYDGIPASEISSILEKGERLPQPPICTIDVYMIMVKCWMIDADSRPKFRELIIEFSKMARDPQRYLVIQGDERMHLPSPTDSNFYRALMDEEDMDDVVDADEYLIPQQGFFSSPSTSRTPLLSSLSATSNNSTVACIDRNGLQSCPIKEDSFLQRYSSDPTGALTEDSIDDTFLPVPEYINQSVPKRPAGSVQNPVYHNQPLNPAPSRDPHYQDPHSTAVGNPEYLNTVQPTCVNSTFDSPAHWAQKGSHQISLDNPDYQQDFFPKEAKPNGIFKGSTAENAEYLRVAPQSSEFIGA
T1 sequence (P00533 with tags, fused parts or gaps INS770SVD): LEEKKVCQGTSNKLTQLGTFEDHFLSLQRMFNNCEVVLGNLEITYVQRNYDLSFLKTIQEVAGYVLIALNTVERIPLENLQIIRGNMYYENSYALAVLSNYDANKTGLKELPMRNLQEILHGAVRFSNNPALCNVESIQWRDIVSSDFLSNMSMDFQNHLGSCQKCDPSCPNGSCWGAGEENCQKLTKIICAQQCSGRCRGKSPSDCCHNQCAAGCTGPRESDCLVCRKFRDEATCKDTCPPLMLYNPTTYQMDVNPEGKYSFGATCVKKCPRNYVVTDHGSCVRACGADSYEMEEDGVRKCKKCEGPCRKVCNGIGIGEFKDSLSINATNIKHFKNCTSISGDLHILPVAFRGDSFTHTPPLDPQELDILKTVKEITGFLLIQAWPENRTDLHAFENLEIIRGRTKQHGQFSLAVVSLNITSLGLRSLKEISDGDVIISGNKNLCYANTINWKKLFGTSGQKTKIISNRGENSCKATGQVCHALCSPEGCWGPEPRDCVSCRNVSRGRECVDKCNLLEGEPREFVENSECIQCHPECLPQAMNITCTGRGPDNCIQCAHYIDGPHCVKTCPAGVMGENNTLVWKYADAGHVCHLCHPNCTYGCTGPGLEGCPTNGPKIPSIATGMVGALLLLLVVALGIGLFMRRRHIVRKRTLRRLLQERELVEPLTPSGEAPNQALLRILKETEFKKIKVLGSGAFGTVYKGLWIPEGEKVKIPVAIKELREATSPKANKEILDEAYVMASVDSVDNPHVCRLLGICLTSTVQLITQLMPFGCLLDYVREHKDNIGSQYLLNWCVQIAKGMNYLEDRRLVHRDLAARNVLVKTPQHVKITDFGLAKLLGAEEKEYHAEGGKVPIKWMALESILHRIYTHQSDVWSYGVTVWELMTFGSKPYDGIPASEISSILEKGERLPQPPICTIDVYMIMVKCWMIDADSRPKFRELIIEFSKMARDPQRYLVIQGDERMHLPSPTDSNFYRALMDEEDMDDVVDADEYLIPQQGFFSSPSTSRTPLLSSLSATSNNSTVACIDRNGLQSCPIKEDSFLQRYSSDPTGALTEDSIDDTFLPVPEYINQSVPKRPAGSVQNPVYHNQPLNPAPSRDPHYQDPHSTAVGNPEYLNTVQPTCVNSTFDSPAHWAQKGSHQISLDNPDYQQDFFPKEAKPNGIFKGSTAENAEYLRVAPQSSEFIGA

On to `COc1c(Cl)cccc1Nc1c(-c2ccnc(NC[C@H]3CCO3)n2)[nH]c2c1C(=O)NCC2` [compound 720], for which the pIC50 (in assay [1]; on EGFR WT (Ba/F3 cells); in assay [2]; in assay [3]) was less than 6.00 each time.

With `COc1c(Cl)cccc1Nc1c(-c2ccnc(NC[C@H]3COCCO3)n2)[nH]c2c1C(=O)NCC2` [compound 723, 3-[(3-chloro-2-methoxyphenyl)amino]-2-(2-[[(2S)-1,4-dioxan-2-ylmethyl]amino]pyrimidin-4-yl)-1H,5H,6H,7H-pyrrolo[3,2-c]pyridin-4-one], the pIC50 is less than 6.00 in assay [1], less than 6.00 on EGFR WT (Ba/F3 cells), 6.00 to 7.00 in assay [2] and less than 6.00 in assay [3].

Consider `COc1c(Cl)cccc1Nc1c(-c2ccnc(NC[C@@H]3COCCO3)n2)[nH]c2c1C(=O)NCC2` [compound 724, 3-[(3-chloro-2-methoxyphenyl)amino]-2-[2-[(1,4-dioxan-2-ylmethyl)amino]pyrimidin-4-yl]-1H,5H,6H,7H-pyrrolo[3,2-c]pyridin-4-one], for which the pIC50 in assay [1] was 6.00 to 7.00; on EGFR WT (Ba/F3 cells), less than 6.00; in assay [2], 6.00 to 7.00; in assay [3], less than 6.00.

`COc1c(Cl)cccc1Nc1c(-c2ccnc3[nH]c(=O)c(OC)nc23)[nH]c2c1C(=O)NCC2` [compound 729, 8-(3-((3-chloro-2-methoxyphenyl)amino)-4-oxo-4,5,6,7-tetrahydro-1H-pyrrolo[3,2-c]pyridin-2-yl)-2-methoxypyrido[2,3-b]pyrazin-3 (4H)-one]: the pIC50 was greater than 7.00 in assay [1], 6.00 to 7.00 at EGFR WT (Ba/F3 cells), 6.00 to 7.00 in assay [2] and 6.00 to 7.00 in assay [3].

As for `COc1c(Cl)cccc1Nc1c(-c2ccnc3ccc(OC4CCOCC4)nc23)[nH]c2c1C(=O)NCC2` [compound 740, 3-[(3-chloro-2-methoxyphenyl)amino]-2-[6-(oxan-4-yloxy)-1,5-naphthyridin-4-yl]-1H,5H,6H,7H-pyrrolo[3,2-c]pyridin-4-one], the pIC50 (in assay [1]; at EGFR WT (Ba/F3 cells); in assay [2]; in assay [3]) was greater than 7.00 each time.

As for `COc1c(Cl)cccc1Nc1c(-c2ccnc3ccc(C4CC4)nc23)[nH]c2c1C(=O)NCC2` [compound 752, 3-[(3-chloro-2-methoxyphenyl)amino]-2-(6-cyclopropyl-1,5-naphthyridin-4-yl)-1H,5H,6H,7H-pyrrolo[3,2-c]pyridin-4-one], the pIC50 (in assay [1]; on EGFR WT (Ba/F3 cells); in assay [2]; in assay [3]) was greater than 7.00 each time.

In the case of `COc1c(Cl)cccc1Nc1c(-c2ccnc3ccc(OCC4CC4)nc23)[nH]c2c1C(=O)NCC2` [compound 755, 3-[(3-chloro-2-methoxyphenyl)amino]-2-[6-(cyclopropylmethoxy)-1,5-naphthyridin-4-yl]-1H,5H,6H,7H-pyrrolo[3,2-c]pyridin-4-one], the pIC50 is greater than 7.00 in assay [1], 6.00 to 7.00 on EGFR WT (Ba/F3 cells), greater than 7.00 in assay [2] and greater than 7.00 in assay [3].

Take `COc1c(Cl)cccc1Nc1c(-c2ccnc3ccc(OCC4CCC4)nc23)[nH]c2c1C(=O)NCC2` [compound 756, 3-[(3-chloro-2-methoxyphenyl)amino]-2-[6-(cyclobutylmethoxy)-1,5-naphthyridin-4-yl]-1H,5H,6H,7H-pyrrolo[3,2-c]pyridin-4-one]: the pIC50 is 6.00 to 7.00 in assay [1], 6.00 to 7.00 on EGFR WT (Ba/F3 cells), greater than 7.00 in assay [2] and 6.00 to 7.00 in assay [3].

Take `COc1c(Cl)cccc1Nc1c(-c2ccnc3ccc(OCC4(F)CC4)nc23)[nH]c2c1C(=O)NCC2` [compound 759, 3-[(3-chloro-2-methoxyphenyl)amino]-2-[6-[(1-fluorocyclopropyl)methoxy]-1,5-naphthyridin-4-yl]-1H,5H,6H,7H-pyrrolo[3,2-c]pyridin-4-one]: the pIC50 was greater than 7.00 in assay [1], 6.00 to 7.00 at EGFR WT (Ba/F3 cells), greater than 7.00 in assay [2] and greater than 7.00 in assay [3].

With `COc1c(Cl)cccc1Nc1c(-c2ccnc3ccc(OC(C)C)nc23)[nH]c2c1C(=O)NCC2` [compound 762, 3-[(3-chloro-2-methoxyphenyl)amino]-2-(6-isopropoxy-1,5-naphthyridin-4-yl)-1H,5H,6H,7H-pyrrolo[3,2-c]pyridin-4-one], the pIC50 (in assay [1]; on EGFR WT (Ba/F3 cells); in assay [2]; in assay [3]) was greater than 7.00 in each case.

Turning to `COc1c(Cl)cccc1Nc1c(-c2ccnc3ccc(OC4CCC4)nc23)[nH]c2c1C(=O)NCC2` [compound 768, 3-[(3-chloro-2-methoxyphenyl)amino]-2-(6-cyclobutoxy-1,5-naphthyridin-4-yl)-1H,5H,6H,7H-pyrrolo[3,2-c] pyridin-4-one], the pIC50 in assay [1] is greater than 7.00; at EGFR WT (Ba/F3 cells), 6.00 to 7.00; in assay [2] it was greater than 7.00; in assay [3], greater than 7.00.

In the case of `C=CC[C@H]1CNC(=O)c2c1[nH]c(-c1ccncc1F)c2Nc1cccc(Cl)c1OC` [compound 811], the pIC50 (in assay [1]; on EGFR WT (Ba/F3 cells); in assay [2]; in assay [3]) was less than 6.00 each time.

For `COc1c(Cl)cccc1Nc1c(-c2ccncc2F)[nH]c2c1C(=O)NC[C@H]2CCF` [compound 812], the pIC50 in assay [1] was 6.00 to 7.00; on EGFR WT (Ba/F3 cells), less than 6.00; in assay [2] it was 6.00 to 7.00; in assay [3], 6.00 to 7.00.

Turning to `COc1c(Cl)cccc1Nc1c(-c2ccncc2F)[nH]c2c1C(=O)NC[C@@H]2CCF` [compound 813], the pIC50 was 6.00 to 7.00 in assay [1], less than 6.00 on EGFR WT (Ba/F3 cells), 6.00 to 7.00 in assay [2] and 6.00 to 7.00 in assay [3].

On to `COc1cnc2c(-c3[nH]c4c(c3Nc3cccc(Cl)c3OC)C(=O)NCC4)ccnc2c1` [compound 814], for which the pIC50 (in assay [1]; on EGFR WT (Ba/F3 cells); in assay [2]; in assay [3]) was greater than 7.00 each time.

Regarding `COc1c(Cl)cccc1Nc1c(-c2ccncc2F)[nH]c2c1C(=O)NC[C@]21CCN(C)C1` [compound 815], the pIC50 in assay [1] is 6.00 to 7.00; on EGFR WT (Ba/F3 cells) it was less than 6.00; in assay [2] it was 6.00 to 7.00; in assay [3], 6.00 to 7.00.

For `COc1c(Cl)cccc1Nc1c(-c2ccncc2F)[nH]c2c1C(=O)NC[C@@]21CCN(C)C1` [compound 816], the pIC50 was 6.00 to 7.00 in assay [1], less than 6.00 on EGFR WT (Ba/F3 cells), 6.00 to 7.00 in assay [2] and 6.00 to 7.00 in assay [3].

Regarding `COc1c(Cl)cccc1Nc1c(-c2ccncc2F)[nH]c2c1C(=O)NC[C@]21CCN(CC(F)(F)F)C1` [compound 818], the negative logarithm of the IC50 (pIC50) was 6.00 to 7.00 in assay [1], less than 6.00 at EGFR WT (Ba/F3 cells), 6.00 to 7.00 in assay [2] and 6.00 to 7.00 in assay [3].

Take `COCC[C@H]1CNC(=O)c2c1[nH]c(-c1ccncc1F)c2Nc1cccc(F)c1C` [compound 824]: the pIC50 in assay [1] was 6.00 to 7.00; on EGFR WT (Ba/F3 cells), less than 6.00; in assay [2], 6.00 to 7.00; in assay [3] it was 6.00 to 7.00.

As to `COc1ccc2ncc(F)c(-c3[nH]c4c(c3Nc3cccc(Cl)c3OC)C(=O)NCC4)c2n1` [compound 829, 3-[(3-chloro-2-methoxyphenyl)amino]-2-(3-fluoro-6-methoxy-1,5-naphthyridin-4-yl)-1H,5H,6H,7H-pyrrolo[3,2-c]pyridin-4-one], the pIC50 (in assay [1]; at EGFR WT (Ba/F3 cells); in assay [2]; in assay [3]) was less than 6.00 throughout.

The pIC50 is the negative decadic logarithm of the IC50, by convention in mol/L.
